In the SangsterLogP compilation:

CN(C)S(=O)(=O)N(SC(F)(Cl)Cl)c1ccccc1
logP: 3.7

CCc1cccc(C)c1N(COC(C)C)C(=O)CCl
logP: 3.5

CCOP(=O)(SC(C)CC)N1CCSC1=O (centres undefined)
logP: 1.68

O=C(NC(=O)c1c(F)cccc1F)Nc1ccc(OC(F)(F)C(F)OC(F)(F)F)c(Cl)c1 (centres undefined)
logP: 5.27

O=C(NC(=O)c1c(F)cccc1F)Nc1ccc(Cl)c(Oc2ncc(C(F)(F)F)cc2Cl)c1
logP: 5.1

COP(=O)(OC)SCn1c(=O)oc2cc(Cl)cnc21
logP: 1.05

Clc1ccc(CS/C(Cn2cncn2)=N\c2ccc(Cl)cc2Cl)cc1
logP: 4.94

Cc1cccc(C)c1N(C(=O)CCl)C1CCOC1=O (centres undefined)
logP: 1.39

Fc1cccc(F)c1-c1nnc(-c2ccccc2Cl)nn1
logP: 3.3
